Assay results taken from PubChem BioAssay (NCI).
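1) Cells in 96-well plates. 2) Compound, 48 h, 5 concentrations. 3) Linear interpolation between surrounding doses. 4) Unreached endpoint = highest concentration. Abbreviation: GI50, concentration required for 50% inhibition of growth. TGI marks complete inhibition of growth.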

Columns and labels:
Test in all cases: growth of human tumour cells (NCI), 48 h
T-47D breast = tested on: T-47D breast
HL-60(TB) leukemia = tested on: HL-60(TB) leukemia
HS 578T breast = tested on: HS 578T breast
HOP-92 NSCLC = tested on: HOP-92 NSCLC
SNB-19 CNS = tested on: SNB-19 CNS
EKVX NSCLC = tested on: EKVX NSCLC
RPMI-8226 leukemia = tested on: RPMI-8226 leukemia
HOP-62 NSCLC = tested on: HOP-62 NSCLC
K-562 leukemia = tested on: K-562 leukemia
MDA-MB-231 breast = tested on: MDA-MB-231 breast

O=C(Nc1ccc(Cl)cc1F)c1cc(F)ccc1O
GI50 (T-47D breast): 0.904 µM
TGI (T-47D breast): > 23.5 µM
GI50 (HL-60(TB) leukemia): 0.622 µM
TGI (HL-60(TB) leukemia): 3.45 µM
GI50 (HS 578T breast): 0.718 µM
TGI (HS 578T breast): 5.3 µM
GI50 (HOP-92 NSCLC): 0.196 µM
TGI (HOP-92 NSCLC): 0.874 µM
GI50 (SNB-19 CNS): 0.669 µM
TGI (SNB-19 CNS): 18.6 µM
GI50 (EKVX NSCLC): 1.88 µM
TGI (EKVX NSCLC): 9.97 µM
GI50 (RPMI-8226 leukemia): 0.449 µM
TGI (RPMI-8226 leukemia): 3.99 µM
GI50 (HOP-62 NSCLC): 1.5 µM
TGI (HOP-62 NSCLC): 19.8 µM
GI50 (K-562 leukemia): 0.609 µM
TGI (K-562 leukemia): > 100 µM
GI50 (MDA-MB-231 breast): 0.761 µM
TGI (MDA-MB-231 breast): 3.81 µM

CC(C)[C@](O)(C(=O)OCC1=CC[N+]2([O-])CC[C@@H](O)[C@@H]12)[C@H](C)O (stereo not given in full)
TGI (T-47D breast): > 10000 µM
TGI (HL-60(TB) leukemia): 9860 µM
TGI (HS 578T breast): > 10000 µM
TGI (HOP-92 NSCLC): > 10000 µM
TGI (SNB-19 CNS): > 10000 µM
TGI (EKVX NSCLC): > 10000 µM
TGI (RPMI-8226 leukemia): > 10000 µM
TGI (HOP-62 NSCLC): > 3980 µM
TGI (K-562 leukemia): > 10000 µM
TGI (MDA-MB-231 breast): > 10000 µM

COc1ccc2[nH]c(-c3ccccc3)c(C=C(C#N)C#N)c2c1
GI50 (T-47D breast): 2.29 µM
TGI (T-47D breast): 9.14 µM
GI50 (HL-60(TB) leukemia): 2.5 µM
TGI (HL-60(TB) leukemia): 13.2 µM
GI50 (HS 578T breast): 2.35 µM
TGI (HS 578T breast): 25.4 µM
GI50 (HOP-92 NSCLC): 2.4 µM
TGI (HOP-92 NSCLC): 36.4 µM
GI50 (SNB-19 CNS): 6.04 µM
TGI (SNB-19 CNS): > 100 µM
GI50 (EKVX NSCLC): 4.05 µM
TGI (EKVX NSCLC): > 100 µM
GI50 (RPMI-8226 leukemia): 2.62 µM
TGI (RPMI-8226 leukemia): 20.3 µM
GI50 (HOP-62 NSCLC): 5.31 µM
TGI (HOP-62 NSCLC): 36.1 µM
GI50 (K-562 leukemia): 2.07 µM
TGI (K-562 leukemia): > 100 µM
GI50 (MDA-MB-231 breast): 3.8 µM
TGI (MDA-MB-231 breast): > 100 µM

C=CC(=O)NCCOc1cccc(Nc2cc(NCCCNC(=O)C3CCC3)c(Br)cn2)c1
GI50 (T-47D breast): 4.49 µM
TGI (T-47D breast): 22.7 µM
GI50 (HL-60(TB) leukemia): 0.989 µM
TGI (HL-60(TB) leukemia): > 25 µM
GI50 (HS 578T breast): 0.567 µM
TGI (HS 578T breast): 1.7 µM
GI50 (HOP-92 NSCLC): 0.826 µM
TGI (HOP-92 NSCLC): > 25 µM
GI50 (SNB-19 CNS): 1.08 µM
TGI (SNB-19 CNS): 14 µM
GI50 (EKVX NSCLC): 2.31 µM
TGI (EKVX NSCLC): 22.5 µM
GI50 (RPMI-8226 leukemia): 1.66 µM
TGI (RPMI-8226 leukemia): > 25 µM
GI50 (HOP-62 NSCLC): 0.302 µM
TGI (HOP-62 NSCLC): 4.98 µM
GI50 (K-562 leukemia): 1.16 µM
TGI (K-562 leukemia): > 25 µM
GI50 (MDA-MB-231 breast): 0.478 µM
TGI (MDA-MB-231 breast): 1.48 µM

OC(COc1cccc2ccccc12)CN1CCN(c2ccc(Cl)cc2)CC1 (stereo not given)
GI50 (T-47D breast): 81.3 µM
TGI (T-47D breast): > 100 µM
GI50 (HL-60(TB) leukemia): > 100 µM
TGI (HL-60(TB) leukemia): > 100 µM
GI50 (HS 578T breast): 23.4 µM
TGI (HS 578T breast): > 100 µM
GI50 (HOP-92 NSCLC): 5.02 µM
TGI (HOP-92 NSCLC): 28 µM
GI50 (SNB-19 CNS): 17 µM
TGI (SNB-19 CNS): 45.4 µM
GI50 (EKVX NSCLC): 21.3 µM
TGI (EKVX NSCLC): > 100 µM
GI50 (RPMI-8226 leukemia): 42.9 µM
TGI (RPMI-8226 leukemia): > 100 µM
GI50 (HOP-62 NSCLC): 8.53 µM
TGI (HOP-62 NSCLC): 29.6 µM
GI50 (K-562 leukemia): > 100 µM
TGI (K-562 leukemia): > 100 µM
GI50 (MDA-MB-231 breast): 19.5 µM
TGI (MDA-MB-231 breast): 69 µM

CC(N)(Cc1c[nH]c2ccccc12)C(=O)O (stereo not given)
GI50 (T-47D breast): > 2500 µM
TGI (T-47D breast): > 2500 µM
GI50 (HL-60(TB) leukemia): > 2500 µM
TGI (HL-60(TB) leukemia): > 2500 µM
GI50 (HS 578T breast): 1090 µM
TGI (HS 578T breast): > 2500 µM
GI50 (HOP-92 NSCLC): 1800 µM
TGI (HOP-92 NSCLC): > 2500 µM
GI50 (SNB-19 CNS): > 2500 µM
TGI (SNB-19 CNS): > 2500 µM
GI50 (EKVX NSCLC): > 2500 µM
TGI (EKVX NSCLC): > 2500 µM
GI50 (RPMI-8226 leukemia): > 2500 µM
TGI (RPMI-8226 leukemia): > 2500 µM
GI50 (HOP-62 NSCLC): > 2500 µM
TGI (HOP-62 NSCLC): > 2500 µM
GI50 (K-562 leukemia): > 2500 µM
TGI (K-562 leukemia): > 2500 µM
GI50 (MDA-MB-231 breast): > 2500 µM
TGI (MDA-MB-231 breast): > 2500 µM

Cc1ccc(Nc2[nH]c(C(=O)c3ccc(Cl)cc3)c(N)c2C(=S)Nc2ccccc2)nc1
GI50 (T-47D breast): 29.8 µM
TGI (T-47D breast): > 100 µM
GI50 (HL-60(TB) leukemia): 63.3 µM
TGI (HL-60(TB) leukemia): > 100 µM
GI50 (HS 578T breast): 21.8 µM
TGI (HS 578T breast): 76.2 µM
GI50 (HOP-92 NSCLC): 29.5 µM
TGI (HOP-92 NSCLC): > 100 µM
GI50 (SNB-19 CNS): 39.4 µM
TGI (SNB-19 CNS): > 100 µM
GI50 (EKVX NSCLC): 35.5 µM
TGI (EKVX NSCLC): > 100 µM
GI50 (RPMI-8226 leukemia): 25.5 µM
TGI (RPMI-8226 leukemia): > 100 µM
GI50 (HOP-62 NSCLC): 35.9 µM
TGI (HOP-62 NSCLC): > 100 µM
GI50 (K-562 leukemia): 45.4 µM
TGI (K-562 leukemia): > 100 µM
GI50 (MDA-MB-231 breast): 21.4 µM
TGI (MDA-MB-231 breast): 64.7 µM
